Laboratory results published in patent US20250276982A1, “KRAS INHIBITORS” (ASCENTAGE PHARMA (SUZHOU) CO., LTD., priority 2021, published 2025).
pIC50: −log10 of the molar value.

Columns and labels:
[1] = system: p-ERK in AGS cells; assay: p-ERK assay in AGS cells (fixed cells, anti-p-ERK / β-Actin antibodies, IR imaging); type: cell-based; details: Homo sapiens, 3 h at 37° C., p-ERK detected by antibody with β-Actin, IR fluorescence
Experimental: The expression of p-ERK was detected in this assay. At first, the AGS cells (40000 cells/well) were seeded in 96-well plate culture overnight and treated with KRAS-G12D compounds inhibitors at concentrations of 1, 0.33, 0.11, 0.03, 0.01, 0.004, 0.001, 0.0004, 0.0001 μM for 3 h at 37° C. Then, add an equal volume (100 μL) of 8% paraformaldehyde solution to fix and crosslink the cells to the microplate for 15 minutes. Add 100 μL of 1× permeabilization solution to wells for 30 min and add 100 μL of 1× blocking solution for 2 h. Wash with PBS 3 times after each reaction. At last, Incubation with primary antibody (Anti-mouse β-Actin and Anti-rabbit p-ERK) and secondary antibody (Goat anti-Mouse IgG H&L IRDye 800CW and Goat anti-Rabbit IgG H&L IRDye 680RW) for 2 h, As appropriate, image the microplate with an IR scanner or develop the HRP labeled microplate and read it with a spectrophotometer. The fluorescence signal was monitored using a microplate reader (Azure biosystems, Sapphire biomolecular imager) using excitation and emission wavelengths of 680 and 800 nm, respectively. Export data. The inhibitor dose-reponse curves were analyzed using normalized IC50 regression curve fitting with control based normalization.

[2] = system: GP2d cells; assay: Cellular proliferation assay in GP2d cells (CellTiterGlo luminescent cell viability assay); type: cell-based; details: 72 hours treatment, CellTiter-Glo
Experimental: Example 32: Cellular Proliferation Assay in GP2d Cells
The inhibitory effect of test compounds on cellular proliferation was determined using CellTiterGlo® luminescent cell viability assay (Promega) following manufacturer's instruction.
GP2d cells (ECACC #95090715) were cultured in DMEM medium supplemented with 10% fetal bovine serum, 10 U/ml penicillin and 10 ug/ml streptomycin. Cells were plated in 96-well plates at a density of 2000 cells/well and allowed attach for […]. Then the cells were treated with various concentrations of test compounds for 72 hours. CellTiter-Glo® Reagent was added to wells and incubated for 10 minutes at room temperature. The plates were read on GloMax® 96 Microplate Luminometer or compatible microplate readers. The percentage of cellular viability was calculated as: […]

Molecule `Oc1cc(-c2ncc3c(N4C[C@H]5CC[C@@H](C4)N5)nc(OC[C@@]45CCCN4C[C@H](F)C5)nc3c2F)c2c(ccc3ccsc32)c1` [Example 15, 9-(4-((1R,5S)-3,8-diazabicyclo[3.2.1]octan-3-yl)-8-fluoro-2-(((2R,7aS)-2-fluorotetrahydro-1H-pyrrolizin-7a(5H)-yl)methoxy)pyrido[4,3-d]pyrimidin-7-yl)naphtho[1,2-b]thiophen-7-ol] has a pIC50 [1] of 6.80 and a pIC50 [2] of 6.27.
For `Oc1cc(-c2ncc3c(N4C[C@H]5CC[C@@H](C4)N5)nc(OC[C@@]45CCCN4C[C@H](F)C5)nc3c2F)c2c(ccn3cccc23)c1` [Example 22, 10-(4-((1R,5S)-3,8-diazabicyclo[3.2.1]octan-3-yl)-8-fluoro-2-(((2R,7aS)-2-fluorotetrahydro-1H-pyrrolizin-7a(5H)-yl)methoxy)pyrido[4,3-d]pyrimidin-7-yl)pyrrolo[2,1-a]isoquinolin-8-ol], the pIC50 [2] was 5.48.
With `Oc1cc(-c2ccc3c(N4C[C@H]5CC[C@@H](C4)N5)nc(OCC4(CN5CCOCC5)CC4)nc3c2F)c2c3c(ccc2c1)CCC3` [Example 26, 9-(4-((1R,5S)-3,8-diazabicyclo[3.2.1]octan-3-yl)-8-fluoro-2-((1-(morpholinomethyl)cyclopropyl)methoxy)quinazolin-7-yl)-2,3-dihydro-1H-cyclopenta[a]naphthalen-7-ol] the pIC50 [1] was 7.41 and the pIC50 [2] was 6.71.
Work on `Oc1cc(-c2cc3nc(OC[C@@]45CCCN4C[C@H](F)C5)nc(N4C[C@H]5CC[C@@H](C4)N5)c3cn2)c2c3c(ccc2c1)CCC3` [Example 30, 9-(4-((1R,5S)-3,8-diazabicyclo[3.2.1]octan-3-yl)-2-(((2R,7aS)-2-fluorotetrahydro-1H-pyrrolizin-7a(5H)-yl)methoxy)pyrido[4,3-d]pyrimidin-7-yl)-2,3-dihydro-1H-cyclopenta[a]naphthalen-7-ol] yielded a pIC50 [2] of 6.39.
`C[C@@H](COc1nc(N2C[C@H]3CC[C@@H](C2)N3)c2cnc(-c3cc(O)cc4ccc5c(c34)CCC5)c(F)c2n1)CN1C2CCC1COC2` [Example 12, 9-(2-((2R)-3-(3-oxa-8-azabicyclo[3.2.1]octan-8-yl)-2-methylpropoxy)-4-((1R,5S)-3,8-diazabicyclo[3.2.1]octan-3-yl)-8-fluoropyrido[4,3-d]pyrimidin-7-yl)-2,3-dihydro-1H-cyclopenta[a]naphthalen-7-ol] showed a pIC50 [1] of 7.77 and a pIC50 [2] of 7.32.
`Oc1cc(-c2ncc3c(N4C[C@H]5CC[C@@H](C4)N5)nc(OC[C@@]45CCCN4C[C@H](F)C5)nc3c2F)c2c(c1)cc1n2CCC1` [Example 19, 5-(4-((1R,5S)-3,8-diazabicyclo[3.2.1]octan-3-yl)-8-fluoro-2-(((2R,7aS)-2-fluorotetrahydro-1H-pyrrolizin-7a(5H)-yl)methoxy)pyrido[4,3-d]pyrimidin-7-yl)-2,3-dihydro-1H-pyrrolo[1,2-a]indol-7-ol] was tested, and the pIC50 [2] was 5.51.
`Oc1cc(-c2ncc3c(N4C[C@H]5CC[C@@H](C4)N5)nc(OCC4(CN5C6CCC5COC6)CC4)nc3c2F)c2c3c(ccc2c1)CCC3` [Example 23, 9-(2-((1-((3-oxa-8-azabicyclo[3.2.1]octan-8-yl)methyl)cyclopropyl)methoxy)-4-((1R,5S)-3,8-diazabicyclo[3.2.1]octan-3-yl)-8-fluoropyrido[4,3-d]pyrimidin-7-yl)-2,3-dihydro-1H-cyclopenta[a]naphthalen-7-ol] gave a pIC50 [1] of 7.48 and a pIC50 [2] of 6.04.
For `CC1CCc2ccc3cc(O)cc(-c4ncc5c(N6C[C@H]7CC[C@@H](C6)N7)nc(OC[C@@]67CCCN6C[C@H](F)C7)nc5c4F)c3c21` (stereo partly drawn) [Example 14, 9-(4-((1R,5S)-3,8-diazabicyclo[3.2.1]octan-3-yl)-8-fluoro-2-(((2R,7aS)-2-fluorotetrahydro-1H-pyrrolizin-7a(5H)-yl)methoxy)pyrido[4,3-d]pyrimidin-7-yl)-1-methyl-2,3-dihydro-1H-cyclopenta[a]naphthalen-7-ol], the pIC50 [1] was 7.07 and the pIC50 [2] was 6.37.
In the case of `CC1(O)CCCN(c2nc(OCC34CCCN3C[C@H](F)C4)nc3c(F)c(-c4cc(O)cc5ccc6c(c45)CCC6)ncc23)C1` (stereo partly drawn) [Example 13, 1-(8-fluoro-2-(((2R)-2-fluorotetrahydro-1H-pyrrolizin-7a(5H)-yl)methoxy)-7-(7-hydroxy-2,3-dihydro-1H-cyclopenta[a]naphthalen-9-yl)pyrido[4,3-d]pyrimidin-4-yl)-3-methylpiperidin-3-ol], the pIC50 [1] was 7.66 and the pIC50 [2] was 8.00.
In the case of `Oc1cc(-c2c(F)cc3c(N4C[C@H]5CC[C@@H](C4)N5)nc(OCC4(CN5C6CCC5COC6)CC4)nc3c2F)c2c3c(ccc2c1)CCC3` [Example 28, 9-(2-((1-((3-oxa-8-azabicyclo[3.2.1]octan-8-yl)methyl)cyclopropyl)methoxy)-4-((1R,5S)-3,8-diazabicyclo[3.2.1]octan-3-yl)-6,8-difluoroquinazolin-7-yl)-2,3-dihydro-1H-cyclopenta[a]naphthalen-7-ol], the pIC50 [1] was 7.06 and the pIC50 [2] was 6.60.
In the case of `Oc1cc(-c2ncc3c(N4C[C@H]5CC[C@@H](C4)N5)nc(OC[C@@]45CCCN4C[C@H](F)C5)nc3c2F)c2c(ccc3occc32)c1` [Example 5, 9-(4-((1R,5S)-3,8-diazabicyclo[3.2.1]octan-3-yl)-8-fluoro-2-(((2R,7aS)-2-fluorotetrahydro-1H-pyrrolizin-7a(5H)-yl)methoxy)pyrido[4,3-d]pyrimidin-7-yl)naphtho[2,1-b]furan-7-ol], the pIC50 [1] was 7.43 and the pIC50 [2] was 5.54.
With `Oc1cc(-c2ncc3c(N4C[C@H]5CC[C@@H](C4)N5)nc(OCC4(CN5CCOCC5)CC4)nc3c2F)c2c3c(ccc2c1)CCC3` [Example 9, 9-(4-((1R,5S)-3,8-diazabicyclo[3.2.1]octan-3-yl)-8-fluoro-2-((1-(morpholinomethyl)cyclopropyl)methoxy)pyrido[4,3-d]pyrimidin-7-yl)-2,3-dihydro-1H-cyclopenta[a]naphthalen-7-ol] the pIC50 [1] was 7.51 and the pIC50 [2] was 6.76.
Molecule `Oc1cc(-c2c(F)cc3c(N4C[C@H]5CC[C@@H](C4)N5)nc(OCC4(CN5CCOCC5)CC4)nc3c2F)c2c3c(ccc2c1)CCC3` [Example 29, 9-(4-((1R,5S)-3,8-diazabicyclo[3.2.1]octan-3-yl)-6,8-difluoro-2-((1-(morpholinomethyl)cyclopropyl)methoxy)quinazolin-7-yl)-2,3-dihydro-1H-cyclopenta[a]naphthalen-7-ol] has a pIC50 [1] of 7.36 and a pIC50 [2] of 6.56.
In the case of `OCC1Cc2ccc3cc(O)cc(-c4ncc5c(N6C[C@H]7CC[C@@H](C6)N7)nc(OC[C@@]67CCCN6C[C@H](F)C7)nc5c4F)c3c2C1` (stereo partly drawn) [Example 18, 9-(4-((1R,5S)-3,8-diazabicyclo[3.2.1]octan-3-yl)-8-fluoro-2-(((2R,7aS)-2-fluorotetrahydro-1H-pyrrolizin-7a(5H)-yl)methoxy)pyrido[4,3-d]pyrimidin-7-yl)-2-(hydroxymethyl)-2,3-dihydro-1H-cyclopenta[a]naphthalen-7-ol], the pIC50 [1] was 6.62 and the pIC50 [2] was 4.77.
For `CN(C)CC1(COc2nc(N3C[C@H]4CC[C@@H](C3)N4)c3cnc(-c4cc(O)cc5ccc6c(c45)CCC6)c(F)c3n2)CC1` [Example 8, 9-(4-((1R,5S)-3,8-diazabicyclo[3.2.1]octan-3-yl)-2-((1-((dimethylamino)methyl)cyclopropyl)methoxy)-8-fluoropyrido[4,3-d]pyrimidin-7-yl)-2,3-dihydro-1H-cyclopenta[a]naphthalen-7-ol], the pIC50 [1] was 7.39 and the pIC50 [2] was 6.55.
`Oc1cc(-c2ccc3c(N4C[C@H]5CC[C@@H](C4)N5)nc(OCC4(CN5CC6COCC6C5)CC4)nc3c2F)c2c3c(ccc2c1)CCC3` (stereo partly drawn) [Example 24, 9-(4-((1R,5S)-3,8-diazabicyclo[3.2.1]octan-3-yl)-8-fluoro-2-((1-((tetrahydro-1H-furo[3,4-c]pyrrol-5 (3H)-yl)methyl)cyclopropyl)methoxy)quinazolin-7-yl)-2,3-dihydro-1H-cyclopenta[a]naphthalen-7-ol] showed a pIC50 [1] of 7.62 and a pIC50 [2] of 6.92.
Molecule `Oc1cc(-c2c(Cl)cc3c(N4C[C@H]5CC[C@@H](C4)N5)nc(OC[C@@]45CCCN4C[C@H](F)C5)nc3c2F)c2c3c(ccc2c1)CCC3` [Example 31, 9-(4-((1R,5S)-3,8-diazabicyclo[3.2.1]octan-3-yl)-6-chloro-8-fluoro-2-(((2R,7aS)-2-fluorotetrahydro-1H-pyrrolizin-7a(5H)-yl)methoxy)quinazolin-7-yl)-2,3-dihydro-1H-cyclopenta[a]naphthalen-7-ol] has a pIC50 [2] of 6.13.
`C[C@@H]1COCCN1CC1(COc2nc(N3C[C@H]4CC[C@@H](C3)N4)c3ccc(-c4cc(O)cc5ccc6c(c45)CCC6)c(F)c3n2)CC1` [Example 25, 9-(4-((1R,5S)-3,8-diazabicyclo[3.2.1]octan-3-yl)-8-fluoro-2-((1-(((R)-3-methylmorpholino)methyl)cyclopropyl)methoxy)quinazolin-7-yl)-2,3-dihydro-1H-cyclopenta[a]naphthalen-7-ol] showed a pIC50 [1] of 7.74 and a pIC50 [2] of 6.52.
